The subject of data set [1] is quail embryonic CAM vasculature. In words: Shell-less quail embryonic CAM assay, vascular disrupting activity. The class given is in vivo. Here is the method: (§1) Methods: The antiangiogenic and VDA effects of ABI-011 were examined in vitro using tubule formation assay with human umbilical vein endothelial cells (HUVEC) and in vivo using the standard chick embryonic chorioallantoic membrane (CAM) assay with 3-day old embryos (n=18). The shell-less quail embryonic CAM assay was used to determine the time course of VDAs (ABI-011 vs. combretastatin A4 Phosphate [CA4P]). Quail embryos (n=36) were exposed to ABI-011 (1 to 16 μg/ml) on day 7 and digital CAM images were acquired over a 60 min period for scoring VDA. Subcutaneous human colon (HT29) tumors were grown in athymic nude mice and treated intravenously (IV) with ABI-011 (20-40 mg/kg; q4d×3, IV) or CA4P (200 mg/kg; qd×4, IV). The animal weights and tumor measurements were recorded three times weekly and adverse observations recorded.

The test system of data set [2] is human colon (HT29) tumors. In words: Subcutaneous HT29 colon tumor xenograft, ABI-011 vs CA4P (Example 3). As to conditions: CA4P 200 mg/kg, qd×4, IV. The class given is in vivo, athymic nude mice. Here is the method:
as §1

For data set [3], the system named is human PC3 prostate cancer xenograft. In words: Subcutaneous PC3 prostate tumor xenograft, tumor growth inhibition. The class given is in vivo, athymic nude mice. The following applies: Avastin 8 mg/kg 2x/wk. As to the method: (§2) Methods: Subcutaneous human breast (MDA-MB-231), colon (HT29) and prostate (PC3) tumors were grown in athymic nude mice and treated intravenously (IV) with sub-optimal dose of ABI-011 alone at 20 mg/kg (q4d×3, q4d×2, or qd×1) and in combination with nab-paclitaxel (5 mg/kg, q4d×3, IV) or bevacizumab (8 mg/kg, 2×wkly, IP). The effect of dose, schedule, and sequence of combination regimen on therapeutic efficacy was tested. ABI-011 was administered 24 h before, concurrent with, or 24 h after nab-paclitaxel or bevacizumab treatment.

In data set [4] the test system is human HT29 colon cancer xenograft. In words: Subcutaneous HT29 colon tumor xenograft, antitumor activity (Example 1). The class given is in vivo, athymic nude mice. The following applies: Avastin 8 mg/kg 2x/wk. Here is the method:
as §2

A short description of data set [5]: Body weight change in PC3 tumor-bearing mice. The following applies: Avastin 8 mg/kg 2x/wk. The class given is in vivo, athymic nude mice. As to the method: as §2

Consider `COc1ccc(/C=C\c2cc(OC)c(OC)c(OC)c2)cc1OP(=O)(O)O` [CA4P, combretastatin A4 Phosphate], for which, in data set [1] (quail CAM, at concentrations much higher than the effective dose of ABI-011), the “Vascular disrupting activity (VDA), in words” value is “only modest VDA”. Moreover, the “IC50, vascular disrupting activity (VDA)” value in data set [1] (quail embryonic CAM, scored over 60 min) came out at 13.1 µg/mL. For the same compound, in data set [1] (quail embryos), the “LD50, embryonic mortalities” value was 12.8 µg/mL. Further, the “Antitumor efficacy, in words” value in data set [2] is recorded as “ineffective”.

“Avastin: anti-VEGF antibody (bevacizumab)”: the “TGI, tumor growth inhibition on day 23” value in data set [3] stood at 52.9%. For the same compound, in data set [4], the “TGI, tumor growth inhibition on day 23” value came to 75.3% and the Three-TDT was determined as 19.3 days. Moreover, the “BWC, percent body weight change on day 21” value in data set [5] is on record as −24.6%.

The record behind these values is patent publication US20170105951A1, “COMBINATION THERAPY WITH THIOCOLCHICINE DERIVATIVES” (Abraxis BioScience, LLC, priority 2009, published 2017).
